Activity calls are given as the source filed them. The rule behind the calls is not given here.
How the values were obtained:
Mus musculus [1] = experiment: Antiinflammatory activity in ICR cutaneous abscess mouse model assessed as reduction in TNF-alpha expression in serum at 5 mg/kg,ip administered twice a day measured after 72 hrs by ELISA (reference value: 1.01 +/ 0.46 10^3 pg/ml); type: functional
Mus musculus [2] = experiment: Antiinflammatory activity in ICR cutaneous abscess mouse model assessed as reduction in IL-1alpha expression in serum at 5 mg/kg,ip administered twice a day measured after 72 hrs by ELISA (reference value: 9.9 +/ 0.42 10^1pg/ml); type: functional
Mus musculus [3] = experiment: Antiinflammatory activity in ICR cutaneous abscess mouse model assessed as reduction in IL-1beta expression in serum at 5 mg/kg,ip administered twice a day measured after 72 hrs by ELISA (reference value: 9.9 +/ 0.47 10^1pg/ml); type: functional
Mus musculus [4] = experiment: Antiinflammatory activity in ICR cutaneous abscess mouse model assessed as reduction in IL-2 expression in serum at 5 mg/kg,ip administered twice a day measured after 72 hrs by ELISA (reference value: 1.53 +/ 0.06 10^3pg/ml); type: functional
Pseudomonas aeruginosa [5] = experiment: Antimicrobial activity against Pseudomonas aeruginosa ATCC 27853 infected in ICR cutaneous abscess mouse model assessed as reduction in necrotic tissue area in infection site at 5 mg/kg,ip administered twice a day measured after 3 days by hematoxylin and eosin staining based analysis; type: functional, organism-based; conditions: time 3.0 day
Pseudomonas aeruginosa [6] = experiment: Antimicrobial activity against Pseudomonas aeruginosa ATCC 27853 infected in ICR cutaneous abscess mouse model assessed as complete epidermis structure at 5 mg/kg,ip administered twice a day measured after 3 days by hematoxylin and eosin staining based analysis; type: functional, organism-based; conditions: time 3.0 day
[7] = tested on: Staphylococcus epidermidis; experiment: Antibacterial activity against Staphylococcus epidermidis ATCC 12228 assessed as inhibition of bacterial growth at pH 6.5 incubated for 24 hrs by NCCLS protocol based method; type: functional
Staphylococcus aureus [8] = experiment: Antibacterial activity against methicillin-resistant Staphylococcus aureus ATCC 43300 assessed as inhibition of bacterial growth at pH 7.4 incubated for 24 hrs by NCCLS protocol based method; type: functional
Salmonella typhimurium [9] = experiment: Antibacterial activity against Salmonella enterica subsp. enterica serovar Typhimurium C77-31 assessed as inhibition of bacterial growth at pH 7.4 incubated for 24 hrs by NCCLS protocol based method; type: functional
Salmonella typhimurium [10] = experiment: Antibacterial activity against Salmonella typhimurium ATCC 14028 assessed as inhibition of bacterial growth at pH 7.4 incubated for 24 hrs by NCCLS protocol based method; type: functional, Salmonella enterica subsp. enterica serovar Typhimurium; conditions: Salmonella enterica
Escherichia coli [11] = experiment: Antibacterial activity against Escherichia coli ATCC 25922 assessed as inhibition of bacterial growth at pH 7.4 incubated for 24 hrs by NCCLS protocol based method; type: functional
Pseudomonas aeruginosa [12] = experiment: Antibacterial activity against Pseudomonas aeruginosa ATCC 27853 assessed as inhibition of bacterial growth at pH 7.4 incubated for 24 hrs by NCCLS protocol based method; type: functional
Staphylococcus aureus [13] = experiment: Antibacterial activity against Staphylococcus aureus ATCC 29213 assessed as inhibition of bacterial growth at pH 7.4 incubated for 24 hrs by NCCLS protocol based method; type: functional
[14] = tested on: Staphylococcus epidermidis; experiment: Antibacterial activity against Staphylococcus epidermidis ATCC 12228 assessed as inhibition of bacterial growth at pH 7.4 incubated for 24 hrs by NCCLS protocol based method; type: functional
Staphylococcus aureus [15] = experiment: Antibacterial activity against Staphylococcus aureus ATCC 25923 assessed as inhibition of bacterial growth at pH 7.4 incubated for 24 hrs by NCCLS protocol based method; type: functional
Salmonella typhimurium [16] = experiment: Antibacterial activity against Salmonella enterica subsp. enterica serovar Typhimurium C77-31 assessed as inhibition of bacterial growth at pH 6.5 incubated for 24 hrs by NCCLS protocol based method; type: functional
Salmonella typhimurium [17] = experiment: Antibacterial activity against Salmonella typhimurium ATCC 14028 assessed as inhibition of bacterial growth at pH 6.5 incubated for 24 hrs by NCCLS protocol based method; type: functional, Salmonella enterica subsp. enterica serovar Typhimurium; conditions: Salmonella enterica
Escherichia coli [18] = experiment: Antibacterial activity against Escherichia coli ATCC 25922 assessed as inhibition of bacterial growth at pH 6.5 incubated for 24 hrs by NCCLS protocol based method; type: functional
Pseudomonas aeruginosa [19] = experiment: Antibacterial activity against Pseudomonas aeruginosa ATCC 27853 assessed as inhibition of bacterial growth at pH 6.5 incubated for 24 hrs by NCCLS protocol based method; type: functional
Staphylococcus aureus [20] = experiment: Antibacterial activity against Staphylococcus aureus ATCC 29213 assessed as inhibition of bacterial growth at pH 6.5 incubated for 24 hrs by NCCLS protocol based method; type: functional
Staphylococcus aureus [21] = experiment: Antibacterial activity against Staphylococcus aureus ATCC 25923 assessed as inhibition of bacterial growth at pH 6.5 incubated for 24 hrs by NCCLS protocol based method; type: functional
Staphylococcus aureus [22] = experiment: Antibacterial activity against methicillin-resistant Staphylococcus aureus ATCC 43300 assessed as inhibition of bacterial growth at pH 6.5 incubated for 24 hrs by NCCLS protocol based method; type: functional
[23] = Hemolytic activity in human RBC assessed as hemoglobin release at pH 7.4 incubated for 1 hr; type: toxicity, cell-based; conditions: erythrocyte, pH 7.4, 1 h
[24] = Hemolytic activity against human RBC assessed as hemoglobin release at pH 6.5 incubated for 1 hrs; type: toxicity, cell-based; conditions: erythrocyte, pH 6.5, 1 h
[25] = Cytotoxicity against mouse RAW264.7 cells assessed as inhibition of cell growth at pH 7.4 measured after 24 hrs by MTT assay; type: toxicity, cell-based
[26] = Cytotoxicity against mouse RAW264.7 cells assessed as inhibition of cell growth at pH 6.5 measured after 24 hrs by MTT assay; type: toxicity, cell-based
[27] = Ratio of MHC for hemolytic activity against human RBC assessed as hemoglobin release at pH 6.5 to MHC for hemolytic activity against human RBC assessed as hemoglobin release at pH 7.4; type: toxicity, cell-based, Erythrocyte; conditions: human red blood cells (RBC)

Substance	MIC [7] [µM]	MIC (Staphylococcus aureus [8]) [µM]	MIC (Salmonella typhimurium [9]) [µM]	MIC (Salmonella typhimurium [10]) [µM]	MIC (Escherichia coli [11]) [µM]	MIC (Pseudomonas aeruginosa [12]) [µM]	MIC (Staphylococcus aureus [13]) [µM]	MIC [14] [µM]	MIC (Staphylococcus aureus [15]) [µM]	MIC (Salmonella typhimurium [16]) [µM]	MIC (Salmonella typhimurium [17]) [µM]	MIC (Escherichia coli [18]) [µM]	MIC (Pseudomonas aeruginosa [19]) [µM]	MIC (Staphylococcus aureus [20]) [µM]	MIC (Staphylococcus aureus [21]) [µM]	MIC (Staphylococcus aureus [22]) [µM]	MHC10 [23] [µM]	MHC10 [24] [µM]	IC50 at 24 h [25] [µM]	IC50 at 24 h [26] [µM]	other results
COLISTIN	–	–	–	–	–	–	–	–	–	–	–	–	–	–	–	–	–	–	–	–	Activity (Mus musculus [1]): 8.06 10^2pg/ml; Activity (Mus musculus [2]): 7.95 10^1pg/ml; Activity (Mus musculus [3]): 7.23 10^1pg/ml; Activity (Mus musculus [4]): 1.11 10^3pg/ml; Activity (Pseudomonas aeruginosa [5]): Active; Activity (Pseudomonas aeruginosa [6]): Active
H-DLDHLIPHVIHGLVHAIHH-NH2	> 64	> 64	> 64	> 64	> 64	> 64	> 64	> 64	> 64	> 64	> 64	32	> 64	> 64	> 64	> 64	> 128	> 128	> 128	> 128	–
H-ELEHLIPHVIHGLVHAIHH-NH2	> 64	> 64	> 64	> 64	> 64	> 64	> 64	> 64	> 64	> 64	> 64	32	> 64	> 64	> 64	> 64	> 128	> 128	> 128	> 128	–
H-FLDHLIPHVIHGLVHAIHH-NH2	> 64	> 64	> 64	> 64	> 64	> 64	> 64	> 64	> 64	16	16	4	8	> 64	> 64	> 64	> 128	> 128	67.9	67.9	–
H-FLFHLIPHVIHGLVHAIHH-NH2	2	4	64	64	4	64	4	4	4	8	16	2	2	4	2	2	16	8	12.3	4.79	selectivity ratio [27]: 0.5
H-FLFHLIPHVIHGLVKAIRK-NH2	1	2	4	8	2	4	2	1	2	2	4	1	1	1	1	1	16	4	4.41	3.15	selectivity ratio [27]: 0.25
H-FLFKLIPKVIKGLVHAIHH-NH2	2	2	8	8	4	8	2	2	2	4	4	4	4	2	2	2	64	32	4.37	2.96	selectivity ratio [27]: 0.5
H-FLHHLIPHVIHGLVHAIHH-NH2	8	4	16	16	8	> 64	> 64	4	4	2	4	2	2	16	8	8	64	64	70.1	16.1	selectivity ratio [27]: 1
H-HLDHLIPHVIHGLVHAIHH-NH2	> 64	> 64	> 64	> 64	> 64	> 64	> 64	> 64	> 64	64	64	8	32	> 64	> 64	> 64	> 128	> 128	> 128	> 128	–
H-HLEHLIPHVIHGLVHAIHH-NH2	> 64	> 64	> 64	> 64	> 64	> 64	> 64	> 64	> 64	> 64	64	4	32	> 64	> 64	> 64	> 128	> 128	> 128	> 128	–
H-HLHHLIPHVIHGLVHAIHH-NH2	> 64	16	64	64	16	> 64	> 64	32	32	2	8	2	8	> 64	> 64	> 64	> 128	> 128	66	58.3	–

— ChEMBL document CHEMBL5046301, “pH-Responsive Antimicrobial Peptide with Selective Killing Activity for Bacterial Abscess Therapy” (J Med Chem, 2022)
